Twelve compounds from ChEMBL document CHEMBL1201862, “PubChem BioAssay data set” (2004) can be followed below.

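Five compound concentrations were applied to cells in 96-well plates for 48 hours; endpoints were derived by simple linear interpolation of the resulting dose-response curve. GI50 = concentration required for 50% inhibition of growth.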 Active and inactive are the calls of the source. No stated cut-off is given here; in the data, active = GI50 up to about 1.1 µM and inactive = higher.

Some test systems named below: HT-29; Malme-3M; 786-0; HL-60; Hs-578T; SNB-75; UACC-257; M14; IGROV-1; MCF7; NCI/ADR-RES; A498; SF-295; HOP-92; SK-MEL-28; NCI-H460; RXF 393; CCRF-CEM; MDA-MB-231.
Common to all, as to test: inhibition of tumour cell growth, NCI panel, 48 h

With `NCC#CCNCCCN1CC1`, the GI50 was > 100 µM (inactive) in the assay on HT-29; > 100 µM (inactive) with Malme-3M; > 100 µM (inactive) with 786-0; > 100 µM (inactive) in the assay with HL-60; > 100 µM (inactive) in the assay with Hs-578T; < 0.01 µM (active) in the assay on SNB-75. Further, the GI50 in the assay with UACC-257, in the assay with M14, with IGROV-1, in the assay with MCF7, in the assay on NCI/ADR-RES and in the assay on A498 was > 100 µM (inactive) in each case. The GI50 in the assay with SF-295, with HOP-92, with SK-MEL-28 and with NCI-H460 was > 100 µM (inactive) in each case.
`CCN(CC)S(=O)(=O)c1ccc2[nH]c(NC(=O)OC)nc2c1`: the GI50 was 40.9 µM (inactive) with HT-29; > 100 µM (inactive) in the assay on Malme-3M; 64.4 µM (inactive) with 786-0; 12.9 µM (inactive) with HL-60; > 100 µM (inactive) in the assay on Hs-578T; 42.6 µM (inactive) with SNB-75. The GI50 is 8.02 µM (inactive) with UACC-257; 47.6 µM (inactive) with M14; 81.3 µM (inactive) in the assay with RXF 393; 32.4 µM (inactive) in the assay with IGROV-1; 25.9 µM (inactive) in the assay on CCRF-CEM; > 100 µM (inactive) in the assay on NCI/ADR-RES. In addition, the GI50 in the assay on SF-295 is 85.7 µM (inactive); with HOP-92, 30.1 µM (inactive); in the assay with SK-MEL-28 it was 37.3 µM (inactive); with MDA-MB-231, > 100 µM (inactive); with NCI-H460, 49.2 µM (inactive).
Regarding `COC(=O)/C=C/N1CC1`, the GI50 in the assay with HT-29 is 3.28 µM (inactive); in the assay with Malme-3M, > 10 µM (inactive); in the assay with 786-0, > 10 µM (inactive); with HL-60, 8.63 µM (inactive); with Hs-578T, > 10 µM (inactive); with SNB-75, 3.48 µM (inactive). For the same compound, the GI50 in the assay on UACC-257 is > 10 µM (inactive); in the assay on M14 it was > 10 µM (inactive); in the assay on IGROV-1, 1.45 µM (inactive); in the assay on MCF7, > 10 µM (inactive); with CCRF-CEM it was > 10 µM (inactive); in the assay on NCI/ADR-RES, > 10 µM (inactive). For the same compound, the GI50 in the assay on SF-295, in the assay on SK-MEL-28, in the assay on MDA-MB-231 and in the assay on NCI-H460 was > 10 µM (inactive) each time.
With `COC1=CC2C(c3cc4ccccc4n3S(=O)(=O)c3ccccc3)CC1CN2C(=O)OCc1ccccc1` (centres undefined), the GI50 in the assay with HT-29 is 23.6 µM (inactive); in the assay with Malme-3M, 19.8 µM (inactive); in the assay on 786-0 it was 33.9 µM (inactive); with HL-60, 16.4 µM (inactive); in the assay with Hs-578T, 23.8 µM (inactive); in the assay with SNB-75 it was 1.6 µM (inactive). Moreover, the GI50 in the assay with UACC-257 was 34.8 µM (inactive); with M14, 19.6 µM (inactive); in the assay with RXF 393, 14.4 µM (inactive); in the assay on IGROV-1, 33.7 µM (inactive); in the assay with MCF7, 39.9 µM (inactive); in the assay on CCRF-CEM it was 29.4 µM (inactive). In addition, the GI50 in the assay with NCI/ADR-RES is 35.7 µM (inactive); in the assay with SF-295, 25 µM (inactive); in the assay on MDA-MB-231, 20 µM (inactive); in the assay on NCI-H460, 29.5 µM (inactive).
As to `CCOc1cc(C2CC(c3ccc(NS(=O)(=O)c4cc([N+](=O)[O-])ccc4C)cc3)=NN2c2ccc([N+](=O)[O-])cc2[N+](=O)[O-])ccc1O` (centres undefined), the GI50 in the assay with HT-29 is 41.6 µM (inactive); in the assay on Malme-3M, 8.57 µM (inactive); with 786-0 it was 2.58 µM (inactive); in the assay with HL-60, 40.9 µM (inactive); in the assay with Hs-578T, 12.9 µM (inactive); with SNB-75 it was 5.82 µM (inactive). Besides, the GI50 with UACC-257 is 19.1 µM (inactive); in the assay with M14 it was 12.3 µM (inactive); in the assay on RXF 393, 7.11 µM (inactive); in the assay with IGROV-1 it was 12.5 µM (inactive); with MCF7, 7.46 µM (inactive); with CCRF-CEM it was 43.7 µM (inactive). In addition, the GI50 is 8.04 µM (inactive) in the assay with NCI/ADR-RES; 12.1 µM (inactive) with SF-295; 10.4 µM (inactive) in the assay with HOP-92; 8 µM (inactive) in the assay on SK-MEL-28; 6.3 µM (inactive) in the assay on MDA-MB-231.
For `COc1nc(N)c(C#N)c(C#N)c1C#N`, the GI50 in the assay on HT-29, in the assay on Malme-3M, in the assay on 786-0, in the assay with HL-60, in the assay on Hs-578T and in the assay on SNB-75 was > 10 µM (inactive) throughout. For the same compound, the GI50 in the assay on UACC-257, in the assay on M14, with MCF7, with NCI/ADR-RES, in the assay with SF-295 and with HOP-92 was > 10 µM (inactive) each time. Moreover, the GI50 in the assay with SK-MEL-28 and with MDA-MB-231 was > 10 µM (inactive) throughout.
Take `CC1=NN(c2nc(N)nc(NS(=O)(=O)c3cc(C)c(Cl)cc3S)n2)C(C)(C)C1`: the GI50 in the assay with HT-29, with Malme-3M, with 786-0, in the assay with HL-60, with Hs-578T and in the assay with SNB-75 was > 10 µM (inactive) throughout. Besides, the GI50 with UACC-257, in the assay on M14, in the assay with RXF 393, in the assay on IGROV-1, in the assay with MCF7 and with CCRF-CEM was > 10 µM (inactive) throughout. In addition, the GI50 in the assay on NCI/ADR-RES, in the assay on A498, in the assay on SF-295, in the assay with HOP-92, with SK-MEL-28 and in the assay with NCI-H460 was > 10 µM (inactive) throughout.
In the case of `COC(=O)C1SC(SC)=NC12c1ccccc1Nc1ccccc12` (centres undefined), the GI50 is 30.8 µM (inactive) in the assay with HT-29; 22 µM (inactive) with Malme-3M; 35.2 µM (inactive) in the assay with 786-0; 29.5 µM (inactive) with HL-60; 31.7 µM (inactive) in the assay with Hs-578T; 51.1 µM (inactive) in the assay with SNB-75. Moreover, the GI50 with UACC-257 was 25.7 µM (inactive); in the assay on M14, 18.5 µM (inactive); in the assay on RXF 393 it was 67.3 µM (inactive); in the assay with IGROV-1, 30.3 µM (inactive); in the assay with MCF7 it was 27.7 µM (inactive); in the assay on CCRF-CEM it was 31.8 µM (inactive). Also, the GI50 with NCI/ADR-RES was 39.9 µM (inactive); in the assay with A498, 41.8 µM (inactive); with SF-295, 32.7 µM (inactive); in the assay with HOP-92, 20.8 µM (inactive); in the assay on SK-MEL-28 it was 21.1 µM (inactive); in the assay on NCI-H460 it was 22.1 µM (inactive).
`Cc1ccc(O)c(/N=N\c2c(O)cc(S(=O)(=O)O)c3ccccc23)c1`: the GI50 in the assay with HT-29 was 61.5 µM (inactive); in the assay with Malme-3M, 25.2 µM (inactive); in the assay with 786-0, 57.5 µM (inactive); with HL-60, 16.4 µM (inactive); in the assay with Hs-578T, > 100 µM (inactive); in the assay with UACC-257, 94.6 µM (inactive). For the same compound, the GI50 is 24.6 µM (inactive) in the assay on M14; > 100 µM (inactive) in the assay with RXF 393; 40.3 µM (inactive) in the assay on IGROV-1; 41.1 µM (inactive) with MCF7; 23.1 µM (inactive) in the assay on CCRF-CEM; 24.3 µM (inactive) with NCI/ADR-RES. The GI50 in the assay with SF-295 was 34.6 µM (inactive); in the assay with HOP-92, > 100 µM (inactive); in the assay on SK-MEL-28 it was 45.3 µM (inactive); with MDA-MB-231, 25.4 µM (inactive); in the assay with NCI-H460 it was 35.6 µM (inactive).
As for `OCC1OC(OCC(O)C(O)C(O)C(/C=N/Nc2ccccc2)=N/Nc2ccccc2)C(O)C(O)C1O` (centres undefined), the GI50 is > 100 µM (inactive) in the assay with HT-29; 85.5 µM (inactive) with Malme-3M; > 100 µM (inactive) with 786-0; > 100 µM (inactive) in the assay on HL-60; > 100 µM (inactive) in the assay on Hs-578T; > 100 µM (inactive) in the assay with SNB-75. The GI50 is > 100 µM (inactive) in the assay on UACC-257; > 100 µM (inactive) in the assay with M14; 5.19 µM (inactive) with IGROV-1; 63.1 µM (inactive) with MCF7; > 100 µM (inactive) with CCRF-CEM; > 100 µM (inactive) with NCI/ADR-RES. Also, the GI50 is 78.9 µM (inactive) in the assay with SF-295; 34.8 µM (inactive) in the assay on HOP-92; > 100 µM (inactive) in the assay on SK-MEL-28; > 100 µM (inactive) with MDA-MB-231; 30.9 µM (inactive) with NCI-H460.
On to `O=C1CC(Cl)c2c(Cl)sc(Cl)c21` (centres undefined), for which the GI50 with HT-29 is 2.23 µM (inactive); in the assay with Malme-3M it was 1.42 µM (inactive); in the assay with 786-0, 1.47 µM (inactive); in the assay on HL-60, 1.4 µM (inactive); in the assay on Hs-578T, 7.38 µM (inactive); with SNB-75, 4.56 µM (inactive). In addition, the GI50 in the assay on UACC-257 was 2.96 µM (inactive); in the assay on M14, 1.88 µM (inactive); with IGROV-1, 1.99 µM (inactive); with MCF7, 0.794 µM (active); in the assay with CCRF-CEM, 0.255 µM (active); in the assay with NCI/ADR-RES, 3.35 µM (inactive). Besides, the GI50 with A498 is 12.2 µM (inactive); with SF-295, 15.4 µM (inactive); with HOP-92, 1.74 µM (inactive); in the assay on SK-MEL-28, 2.1 µM (inactive); with NCI-H460, 13.8 µM (inactive).
On to `Cc1nc(C(N)=S)sc1C(/C=C/c1ccc(Cl)c(Cl)c1)=N/NC(C)(C)C`, for which the GI50 with HT-29 was > 100 µM (inactive); in the assay with 786-0, > 100 µM (inactive); with HL-60, 61.8 µM (inactive); in the assay with Hs-578T it was > 100 µM (inactive); with SNB-75, > 100 µM (inactive); in the assay with UACC-257 it was > 100 µM (inactive). Also, the GI50 in the assay on RXF 393 is > 100 µM (inactive); in the assay with IGROV-1 it was > 100 µM (inactive); in the assay on MCF7, > 100 µM (inactive); with CCRF-CEM it was 32.8 µM (inactive); in the assay on NCI/ADR-RES, > 100 µM (inactive); with SF-295, > 100 µM (inactive). The GI50 in the assay with HOP-92, in the assay with SK-MEL-28, with MDA-MB-231 and in the assay with NCI-H460 was > 100 µM (inactive) throughout.
